Experimental data: ChEMBL document CHEMBL1136175, “Synthesis and antimycobacterial activity of capuramycin analogues. Part 2: acylated derivatives of capuramycin-related compounds” (Bioorg Med Chem Lett, 2003)
Converted amounts (≈) assume the structure as drawn.

Experiments:
[1] = test system: Mycolicibacterium smegmatis; test: Antimycobacterial activity was determined against Mycobacterium smegmatis SANK75075; type: functional
[2] = test system: Mycobacterium avium; test: Antimycobacterial activity against Mycobacterium avium NIHJ1605; type: functional
[3] = test system: Mycobacterium kansasii; test: Antimycobacterial activity against Mycobacterium kansasii ATCC 12478; type: functional
[4] = test system: Mycobacterium intracellulare; test: Antimycobacterial activity against Mycobacterium intracellular ATCC 1954 E-3; type: functional
[5] = molecular target: T1, Phospho-N-acetylmuramoyl-pentapeptide-transferase (Escherichia coli K-12, UniProt P0A6W3); test: Inhibitory concentration required against Translocase I
T1 sequence (P0A6W3 whole entry): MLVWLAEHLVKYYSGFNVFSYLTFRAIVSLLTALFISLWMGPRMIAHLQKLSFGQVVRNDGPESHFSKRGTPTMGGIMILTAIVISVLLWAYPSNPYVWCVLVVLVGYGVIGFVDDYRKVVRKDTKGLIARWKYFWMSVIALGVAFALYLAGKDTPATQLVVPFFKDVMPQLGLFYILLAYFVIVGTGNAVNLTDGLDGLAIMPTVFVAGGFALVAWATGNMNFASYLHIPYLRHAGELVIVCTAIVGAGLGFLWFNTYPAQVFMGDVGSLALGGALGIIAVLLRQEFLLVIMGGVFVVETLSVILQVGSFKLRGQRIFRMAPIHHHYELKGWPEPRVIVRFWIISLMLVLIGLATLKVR

SMILES	MIC [1] [µg/mL]	IC50 [5] [nM]	MIC [2] [µg/mL]	MIC [3] [µg/mL]	MIC [4] [µg/mL]
CO[C@H]1[C@@H](OC(=O)CC(c2ccccc2)c2ccccc2)[C@H](n2ccc(=O)[nH]c2=O)O[C@@H]1[C@@H](O[C@H]1OC(C(=O)N[C@H]2CCC[C@@H](C)NC2=O)=C[C@H](O)[C@@H]1O)C(N)=O	25 (≈ 31.6 µM)				
CO[C@H]1[C@@H](O)[C@H](n2ccc(=O)[nH]c2=O)O[C@@H]1[C@@H](O[C@H]1OC(C(=O)N[C@H]2CCC[C@@H](C)NC2=O)=C[C@H](O)[C@@H]1O)C(N)=O	6.25 (≈ 10.7 µM)		8 (≈ 13.7 µM)	16 (≈ 27.4 µM)	4 (≈ 6.85 µM)
CCCCCCCCCCCC(=O)O[C@@H]1[C@H](OC)[C@@H]([C@@H](O[C@H]2OC(C(=O)N[C@H]3CCCCNC3=O)=C[C@H](O)[C@@H]2O)C(N)=O)O[C@H]1n1ccc(=O)[nH]c1=O	3.13 (≈ 4.16 µM)		< 0.063	0.125 (≈ 0.166 µM)	0.125 (≈ 0.166 µM)
CO[C@H]1[C@@H](OC(=O)c2ccccc2)[C@H](n2ccc(=O)[nH]c2=O)O[C@@H]1[C@@H](O[C@H]1OC(C(=O)N[C@H]2CCC[C@@H](C)NC2=O)=C[C@H](O)[C@@H]1O)C(N)=O	25 (≈ 36.4 µM)				
CO[C@H]1/C=C/O[C@@]2(C)Oc3c(C)c(O)c4c(O)c(c(/C=N/N5CCN(C)CC5)c(O)c4c3C2=O)NC(=O)/C(C)=C\C=C\[C@H](C)[C@H](O)[C@@H](C)[C@@H](O)[C@@H](C)[C@H](OC(C)=O)[C@@H]1C [RIFAMPIN]			0.125 (≈ 0.152 µM)	0.25 (≈ 0.304 µM)	0.125 (≈ 0.152 µM)
CCCCCCCCCOC(=O)O[C@@H]1[C@H](OC)[C@@H]([C@@H](O[C@H]2OC(C(=O)N[C@H]3CCC[C@@H](C)NC3=O)=C[C@H](O)[C@@H]2O)C(N)=O)O[C@H]1n1ccc(=O)[nH]c1=O	12.5 (≈ 16.6 µM)	1860			
CC/C=C\C/C=C\C/C=C\CCCCCCCC(=O)O[C@@H]1[C@H](OC)[C@@H]([C@@H](O[C@H]2OC(C(=O)N[C@H]3CCC[C@@H](C)NC3=O)=C[C@H](O)[C@@H]2O)C(N)=O)O[C@H]1n1ccc(=O)[nH]c1=O	3.13 (≈ 3.71 µM)				
CCCCCCCCCCCCCC(=O)O[C@@H]1[C@H](OC)[C@@H]([C@@H](O[C@H]2OC(C(=O)N[C@H]3CCCCNC3=O)=C[C@H](O)[C@@H]2O)C(N)=O)O[C@H]1n1ccc(=O)[nH]c1=O	1.56 (≈ 2 µM)		2 (≈ 2.56 µM)	4 (≈ 5.13 µM)	1 (≈ 1.28 µM)
CO[C@H]1[C@@H](OC(=O)C(C)c2ccc([N+](=O)[O-])cc2)[C@H](n2ccc(=O)[nH]c2=O)O[C@@H]1[C@@H](O[C@H]1OC(C(=O)N[C@H]2CCC[C@@H](C)NC2=O)=C[C@H](O)[C@@H]1O)C(N)=O (stereo not given in full)	25 (≈ 32.9 µM)				
CCCCCCCCCCCCCCCC(=O)O[C@@H]1[C@H](OC)[C@@H]([C@@H](O[C@H]2OC(C(=O)N[C@H]3CCCCNC3=O)=C[C@H](O)[C@@H]2O)C(N)=O)O[C@H]1n1ccc(=O)[nH]c1=O	1.56 (≈ 1.93 µM)		1 (≈ 1.24 µM)	4 (≈ 4.95 µM)	2 (≈ 2.48 µM)
NNC(=O)c1ccncc1 [ISONIAZID]			1 (≈ 7.29 µM)	2 (≈ 14.6 µM)	8 (≈ 58.3 µM)
CCCCCCCCCCCCCCCCC(=O)O[C@@H]1[C@H](OC)[C@@H]([C@@H](O[C@H]2OC(C(=O)N[C@H]3CCC[C@@H](C)NC3=O)=C[C@H](O)[C@@H]2O)C(N)=O)O[C@H]1n1ccc(=O)[nH]c1=O	> 100		2 (≈ 2.39 µM)	4 (≈ 4.78 µM)	8 (≈ 9.57 µM)
CCCCCCOC(=O)O[C@@H]1[C@H](OC)[C@@H]([C@@H](O[C@H]2OC(C(=O)N[C@H]3CCC[C@@H](C)NC3=O)=C[C@H](O)[C@@H]2O)C(N)=O)O[C@H]1n1ccc(=O)[nH]c1=O	50 (≈ 70.3 µM)	183			
CCCCCCCCCC(=O)O[C@@H]1[C@H](OC)[C@@H]([C@@H](O[C@H]2OC(C(=O)N[C@H]3CCC[C@@H](C)NC3=O)=C[C@H](O)[C@@H]2O)C(N)=O)O[C@H]1n1ccc(=O)[nH]c1=O	6.25 (≈ 8.47 µM)		< 0.063	< 0.063	< 0.063
CCCCCCCCCCCCCCC(=O)O[C@@H]1[C@H](OC)[C@@H]([C@@H](O[C@H]2OC(C(=O)N[C@H]3CCCCNC3=O)=C[C@H](O)[C@@H]2O)C(N)=O)O[C@H]1n1ccc(=O)[nH]c1=O	3.13 (≈ 3.94 µM)		2 (≈ 2.52 µM)	4 (≈ 5.04 µM)	1 (≈ 1.26 µM)

Now from value to compound, other results behind:

MIC [1] [µg/mL]	IC50 [5] [nM]	SMILES	MIC [2] [µg/mL]	MIC [3] [µg/mL]	MIC [4] [µg/mL]
50 (≈ 59.8 µM)		CCCCCCCCCCCCCCCCCC(=O)O[C@@H]1[C@H](OC)[C@@H]([C@@H](O[C@H]2OC(C(=O)N[C@H]3CCCCNC3=O)=C[C@H](O)[C@@H]2O)C(N)=O)O[C@H]1n1ccc(=O)[nH]c1=O			
> 100	16600	CCCCCCCCCCCCCCCCCCCCCC(=O)O[C@@H]1[C@H](OC)[C@@H]([C@@H](O[C@H]2OC(C(=O)N[C@H]3CCC[C@@H](C)NC3=O)=C[C@H](O)[C@@H]2O)C(N)=O)O[C@H]1n1ccc(=O)[nH]c1=O			
6.25 (≈ 7.37 µM)		CCCCCCCC/C=C\CCCCCCCC(=O)O[C@@H]1[C@H](OC)[C@@H]([C@@H](O[C@H]2OC(C(=O)N[C@H]3CCC[C@@H](C)NC3=O)=C[C@H](O)[C@@H]2O)C(N)=O)O[C@H]1n1ccc(=O)[nH]c1=O			
6.25 (≈ 7.39 µM)		CCCCC/C=C\C/C=C\CCCCCCCC(=O)O[C@@H]1[C@H](OC)[C@@H]([C@@H](O[C@H]2OC(C(=O)N[C@H]3CCC[C@@H](C)NC3=O)=C[C@H](O)[C@@H]2O)C(N)=O)O[C@H]1n1ccc(=O)[nH]c1=O			
50 (≈ 60.8 µM)		CCCCCCCCCCCCCCCCC(=O)O[C@@H]1[C@H](OC)[C@@H]([C@@H](O[C@H]2OC(C(=O)N[C@H]3CCCCNC3=O)=C[C@H](O)[C@@H]2O)C(N)=O)O[C@H]1n1ccc(=O)[nH]c1=O			
50 (≈ 57.9 µM)		CCCCCCCCCCCCCCCCCCCC(=O)O[C@@H]1[C@H](OC)[C@@H]([C@@H](O[C@H]2OC(C(=O)N[C@H]3CCCCNC3=O)=C[C@H](O)[C@@H]2O)C(N)=O)O[C@H]1n1ccc(=O)[nH]c1=O			
100 (≈ 112 µM)		CCCCCCCCCCCCCCCCCCCCCC(=O)O[C@@H]1[C@H](OC)[C@@H]([C@@H](O[C@H]2OC(C(=O)N[C@H]3CCCCNC3=O)=C[C@H](O)[C@@H]2O)C(N)=O)O[C@H]1n1ccc(=O)[nH]c1=O			
25 (≈ 32.1 µM)	769	CCCCCCCCCCC(C)C(=O)O[C@@H]1[C@H](OC)[C@@H]([C@@H](O[C@H]2OC(C(=O)N[C@H]3CCC[C@@H](C)NC3=O)=C[C@H](O)[C@@H]2O)C(N)=O)O[C@H]1n1ccc(=O)[nH]c1=O (stereo not given in full)			
6.25 (≈ 7.87 µM)	1260	CCCCCCCCCCC(C)(C)C(=O)O[C@@H]1[C@H](OC)[C@@H]([C@@H](O[C@H]2OC(C(=O)N[C@H]3CCC[C@@H](C)NC3=O)=C[C@H](O)[C@@H]2O)C(N)=O)O[C@H]1n1ccc(=O)[nH]c1=O			
> 100		CCCCCCCC/C=C\CCCCCCCCCCCC(=O)O[C@@H]1[C@H](OC)[C@@H]([C@@H](O[C@H]2OC(C(=O)N[C@H]3CCC[C@@H](C)NC3=O)=C[C@H](O)[C@@H]2O)C(N)=O)O[C@H]1n1ccc(=O)[nH]c1=O			
50 (≈ 57.1 µM)		CCCCCCCC/C=C\CCCCCCCCCC(=O)O[C@@H]1[C@H](OC)[C@@H]([C@@H](O[C@H]2OC(C(=O)N[C@H]3CCC[C@@H](C)NC3=O)=C[C@H](O)[C@@H]2O)C(N)=O)O[C@H]1n1ccc(=O)[nH]c1=O			
> 100	34200	CCCCCCCCCCCCCCCCCCCC(=O)O[C@@H]1[C@H](OC)[C@@H]([C@@H](O[C@H]2OC(C(=O)N[C@H]3CCC[C@@H](C)NC3=O)=C[C@H](O)[C@@H]2O)C(N)=O)O[C@H]1n1ccc(=O)[nH]c1=O			
25 (≈ 34.5 µM)	235	CCCCCCCCC(=O)O[C@@H]1[C@H](OC)[C@@H]([C@@H](O[C@H]2OC(C(=O)N[C@H]3CCC[C@@H](C)NC3=O)=C[C@H](O)[C@@H]2O)C(N)=O)O[C@H]1n1ccc(=O)[nH]c1=O			
